From patent US12252524B2, “GIP/GLP1 co-agonist compounds” (Eli Lilly and Company, priority 2018, dated 2025) come the findings set out here.

Numbered stars: 1 amine (or outer) side, 2 acyl side, 3 side chain; on linkers, the order of the positions; unused ones are H or OH. Square brackets hold non-standard residues; d marks the D form. Side chains are listed from the residue outwards. Peptide text beside a SMILES is read from it. * marks the point of attachment. C20 diacid = O=C(O)CCCCCCCCCCCCCCCCCCC(=O)*; C18 diacid = O=C(O)CCCCCCCCCCCCCCCCC(=O)*; αMePhe(2-F) = C[C@](N)(Cc1ccccc1F)C(=O)O; γGlu = O=C(O)[C@H](CCC(=O)[*:2])N[*:1]; αMeY = C[C@](N)(Cc1ccc(O)cc1)C(=O)O; αMeL = CC(C)C[C@](C)(N)C(=O)O; Orn = NCCC[C@H](N)C(=O)O; AEEA = NCCOCCOCC(=O)O; Aib = CC(C)(N)C(=O)O Bounds are passed on as bounds.

The target in experiment [1] is T1, gastric inhibitory peptide receptor (GIPR) (Homo sapiens, UniProt P48546).
T1 sequence (P48546 22-466): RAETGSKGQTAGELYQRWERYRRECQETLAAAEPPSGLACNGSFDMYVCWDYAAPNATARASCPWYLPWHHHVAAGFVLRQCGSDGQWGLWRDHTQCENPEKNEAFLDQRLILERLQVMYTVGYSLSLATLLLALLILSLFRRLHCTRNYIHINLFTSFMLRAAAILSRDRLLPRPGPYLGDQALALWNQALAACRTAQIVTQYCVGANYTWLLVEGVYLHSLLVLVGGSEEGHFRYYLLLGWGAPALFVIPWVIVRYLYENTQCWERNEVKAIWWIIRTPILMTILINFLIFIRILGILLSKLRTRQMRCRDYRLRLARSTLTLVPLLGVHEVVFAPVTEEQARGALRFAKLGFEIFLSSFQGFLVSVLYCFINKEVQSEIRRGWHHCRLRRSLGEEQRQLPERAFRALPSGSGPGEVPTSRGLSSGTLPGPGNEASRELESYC
As to the kind of experiment: cAMP pharmacological functional assay in presence of casein, hGIPR. In kind it is cell-based. To be noted: HEK293 cells expressing hGIPR, 0.1% Casein, geometric mean; read-out: hGIPR cAMP Rel EC50 nM (SEM, n).

Experiment [2] has as its target human GLP-1R (Homo sapiens, UniProt P43220). Briefly: [125I]-GLP-1 binding (SPA), human GLP-1 receptor. The arrangement: expressed in transfected cells; crude membranes. As to conditions: read-out: hGLP1R Ki, (nM) (SEM, n). The method in brief:
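Assay buffer: HEPES 25 mM, pH 7.4, CaCl2 2.5 mM, MgCl2 1 mM, with EDTA-free protease inhibitors. Receptor came from crude cell membranes prepared by homogenization and centrifugation at 4° C. IC50s came from four-parameter fits (maximum, minimum, IC50, Hill slope) and were expressed as Ki geometric means with SEM.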

Experiment [3] concerns the target T2, human Gcg receptor (Homo sapiens, UniProt P47871).
T2 construct: expressed in transfected cells; crude membranes
Briefly: [125I]-Glucagon binding (SPA), human Gcg receptor. To be noted: read-out: hGLcgR Ki, nM (SEM, n). Summed up:
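Cell pellets were lysed in hypotonic Tris buffer, pH 7.5, homogenized, and spun at low then high speed to give crude membranes. Ki was derived from the fitted IC50.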

The target of experiment [4] is human GLP-1 receptor (GLP-1R) (Homo sapiens, UniProt P43220). As to the kind of experiment: cAMP pharmacological functional assay in presence of casein, hGLP-1R. As to conditions: HEK293 cells expressing hGLP-1R, 0.1% Casein, geometric mean; read-out: hGLP1R cAMP Rel EC50 nM (SEM, n). In kind it is cell-based.
Experiment [5] concerns the target T3, human GIP receptor (Homo sapiens, UniProt P48546).
T3 construct: expressed in transfected cells; crude membranes
T3 sequence (P48546 22-466): T1 sequence (P48546 22-466)
Briefly: [125I]-GIP binding (SPA), human GIP receptor. To be noted: read-out: hGIPR Ki, nM (SEM, n).

Sequence of human GLP-1 receptor (GLP-1R) (P43220 24-463): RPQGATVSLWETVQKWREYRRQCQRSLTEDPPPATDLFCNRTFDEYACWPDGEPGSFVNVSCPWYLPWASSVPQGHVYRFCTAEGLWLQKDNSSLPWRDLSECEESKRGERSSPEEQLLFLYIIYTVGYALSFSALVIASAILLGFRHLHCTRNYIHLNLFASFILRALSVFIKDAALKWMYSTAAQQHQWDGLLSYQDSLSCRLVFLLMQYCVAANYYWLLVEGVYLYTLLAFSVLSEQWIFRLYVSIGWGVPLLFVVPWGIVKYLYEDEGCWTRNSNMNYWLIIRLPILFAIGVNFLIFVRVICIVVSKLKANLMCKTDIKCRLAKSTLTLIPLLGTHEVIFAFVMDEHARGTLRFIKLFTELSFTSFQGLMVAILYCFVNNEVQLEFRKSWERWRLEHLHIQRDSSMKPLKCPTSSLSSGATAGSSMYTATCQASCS
Sequence of human GLP-1R (P43220 24-463): as above
T2 sequence (P47871 26-477): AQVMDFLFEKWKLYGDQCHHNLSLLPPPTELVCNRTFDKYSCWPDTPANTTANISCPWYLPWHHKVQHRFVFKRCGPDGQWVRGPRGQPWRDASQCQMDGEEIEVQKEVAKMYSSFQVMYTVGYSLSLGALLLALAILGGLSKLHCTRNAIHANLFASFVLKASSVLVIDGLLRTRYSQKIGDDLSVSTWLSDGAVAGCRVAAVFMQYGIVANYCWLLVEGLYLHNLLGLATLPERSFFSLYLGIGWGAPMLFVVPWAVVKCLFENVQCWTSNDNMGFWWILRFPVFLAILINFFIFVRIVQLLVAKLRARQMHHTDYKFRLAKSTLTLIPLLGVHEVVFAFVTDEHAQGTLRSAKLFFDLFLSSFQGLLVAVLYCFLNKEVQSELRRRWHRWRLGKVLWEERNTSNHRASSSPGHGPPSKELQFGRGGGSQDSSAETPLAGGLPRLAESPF

Turning to `CC[C@H](C)[C@H](NC(=O)[C@H](CC(C)C)NC(=O)[C@H](Cc1ccc(O)cc1)NC(=O)[C@H](CCC(=O)O)NC(=O)[C@@H](NC(=O)[C@H](Cc1ccccc1)NC(=O)[C@H](C)NC(=O)C(C)(C)NC(=O)[C@H](CCC(N)=O)NC(=O)[C@H](C)NC(=O)[C@H](CCCCNC(=O)COCCOCCNC(=O)CC[C@H](NC(=O)[C@H]1CC[C@H](CNC(=O)CCCCCCCCCCCCCCCCCCC(=O)O)CC1)C(=O)O)NC(=O)[C@H](CCCCN)NC(=O)[C@H](CC(=O)O)NC(=O)[C@H](CC(C)C)NC(=O)[C@H](CC(C)C)NC(=O)[C@@H](NC(=O)[C@H](CO)NC(=O)[C@H](Cc1ccc(O)cc1)NC(=O)[C@H](CC(=O)O)NC(=O)[C@H](CO)NC(=O)[C@@H](NC(=O)[C@H](Cc1ccccc1)NC(=O)[C@@H](NC(=O)CNC(=O)[C@H](CCC(=O)O)NC(=O)C(C)(C)NC(=O)[C@@H](N)Cc1ccc(O)cc1)[C@@H](C)O)[C@@H](C)O)[C@@H](C)CC)[C@@H](C)CC)C(=O)N[C@@H](CCC(=O)O)C(=O)NCC(=O)NCC(=O)N1CCC[C@H]1C(=O)N[C@@H](CO)C(=O)N[C@@H](CO)C(=O)NCC(=O)N[C@@H](C)C(=O)N1CCC[C@H]1C(=O)N1CCC[C@H]1C(=O)N1CCC[C@H]1C(=O)N[C@@H](CO)C(N)=O` [Example 110], the EC50 (usually the concentration that produces a half-maximal response) is 0.218 nM in experiment [1] and 0.179 nM in experiment [4]. Also, the values for the Ki in experiment [2], in experiment [3] and in experiment [5] were 4.38 nM, 73.9 nM and 0.0395 nM, respectively.

Regarding `CC[C@H](C)[C@H](NC(=O)[C@H](CC(C)C)NC(=O)[C@](C)(Cc1ccc(O)cc1)NC(=O)[C@@H](CCC(=O)O)NC(=O)[C@@H](NC(=O)[C@H](Cc1ccccc1)NC(=O)[C@H](CCC(=O)O)NC(=O)C(C)(C)NC(=O)[C@H](CCC(N)=O)NC(=O)[C@H](C)NC(=O)[C@H](CCCCNC(=O)COCCOCCNC(=O)COCCOCCNC(=O)CC[C@H](NC(=O)CCCCCCCCCCCCCCCCC(=O)O)C(=O)O)NC(=O)[C@H](CCCN)NC(=O)[C@H](CC(=O)O)NC(=O)[C@H](CC(C)C)NC(=O)[C@](C)(CC(C)C)NC(=O)[C@@H](NC(=O)[C@H](CO)NC(=O)[C@H](C)NC(=O)[C@H](CC(=O)O)NC(=O)[C@H](CO)NC(=O)[C@@H](NC(=O)[C@](C)(Cc1ccccc1F)NC(=O)[C@@H](NC(=O)CNC(=O)[C@H](CCC(=O)O)NC(=O)C(C)(C)NC(=O)[C@@H](N)Cc1ccc(O)cc1)[C@@H](C)O)[C@@H](C)O)[C@@H](C)CC)[C@@H](C)CC)C(=O)N[C@@H](CCC(=O)O)C(=O)NCC(=O)NCC(=O)N1CCC[C@H]1C(=O)N[C@@H](CO)C(=O)N[C@@H](CO)C(=O)NCC(=O)N[C@@H](C)C(=O)N1CCC[C@H]1C(=O)N1CCC[C@H]1C(=O)N1CCC[C@H]1C(=O)N[C@@H](CO)C(N)=O` [Example 237] (H-Y[Aib]EGT[αMePhe(2-F)]TSDASI[αMeL]LD[Orn]K([AEEA-AEEA-γGlu-C18 diacid])AQ[Aib]EFI[dE][αMeY]LIEGGPSSGAPPPS-NH2), the concentration giving a half-maximal response (EC50) in experiment [1] was determined as 0.0883 nM; in experiment [4], 0.0187 nM. Moreover, the results for the Ki in experiment [2], in experiment [3] and in experiment [5] were 1.04 nM, greater than 1060 nM and 0.131 nM, respectively.

On to `CC[C@H](C)[C@H](NC(=O)[C@H](CC(C)C)NC(=O)[C@](C)(Cc1ccc(O)cc1)NC(=O)[C@@H](CCC(=O)O)NC(=O)[C@@H](NC(=O)[C@H](Cc1ccccc1)NC(=O)[C@@H](NC(=O)C(C)(C)NC(=O)[C@H](CCC(N)=O)NC(=O)[C@H](C)NC(=O)[C@H](CCCCNC(=O)COCCOCCNC(=O)COCCOCCNC(=O)CC[C@H](NC(=O)CCCCCCCCCCCCCCCCC(=O)O)C(=O)O)NC(=O)[C@H](CCCN)NC(=O)[C@H](CC(=O)O)NC(=O)[C@H](CC(C)C)NC(=O)[C@](C)(CC(C)C)NC(=O)[C@@H](NC(=O)[C@H](CO)NC(=O)[C@H](CC(C)C)NC(=O)[C@H](CC(=O)O)NC(=O)[C@H](CO)NC(=O)[C@@H](NC(=O)[C@](C)(Cc1ccccc1F)NC(=O)[C@@H](NC(=O)CNC(=O)[C@H](CCC(=O)O)NC(=O)C(C)(C)NC(=O)[C@@H](N)Cc1ccc(O)cc1)[C@@H](C)O)[C@@H](C)O)[C@@H](C)CC)[C@@H](C)O)[C@@H](C)CC)C(=O)N[C@@H](CCC(=O)O)C(=O)NCC(=O)NCC(=O)N1CCC[C@H]1C(=O)N[C@@H](CO)C(=O)N[C@@H](CO)C(=O)NCC(=O)N[C@@H](C)C(=O)N1CCC[C@H]1C(=O)N1CCC[C@H]1C(=O)N1CCC[C@H]1C(=O)N[C@@H](CO)C(N)=O` [Example 243] (H-Y[Aib]EGT[αMePhe(2-F)]TSDLSI[αMeL]LD[Orn]K([AEEA-AEEA-γGlu-C18 diacid])AQ[Aib]TFI[dE][αMeY]LIEGGPSSGAPPPS-NH2), for which the EC50 in experiment [1] is 0.0214 nM; in experiment [4], 0.0265 nM. The Ki (as a rule, a measure of affinity in units of concentration, obtained from inhibition or displacement) in experiment [2] was 0.67 nM; in experiment [3] it was 145 nM; in experiment [5], 0.0325 nM.

On to `CC[C@H](C)[C@H](NC(=O)[C@H](CC(C)C)NC(=O)[C@H](Cc1ccc(O)cc1)NC(=O)[C@H](CCC(=O)O)NC(=O)[C@@H](NC(=O)[C@H](Cc1ccccc1)NC(=O)[C@H](C)NC(=O)C(C)(C)NC(=O)[C@H](CCC(N)=O)NC(=O)[C@H](C)NC(=O)[C@H](CCCCNC(=O)COCCOCCNC(=O)COCCOCCNC(=O)CC[C@H](NC(=O)CCCCCCCCCCCCCCCCCCC(=O)O)C(=O)O)NC(=O)[C@H](CCCCN)NC(=O)[C@H](CC(=O)O)NC(=O)[C@H](CC(C)C)NC(=O)[C@](C)(CC(C)C)NC(=O)[C@@H](NC(=O)[C@H](CO)NC(=O)[C@H](Cc1ccc(O)cc1)NC(=O)[C@H](CC(=O)O)NC(=O)[C@H](CO)NC(=O)[C@@H](NC(=O)[C@H](Cc1ccccc1)NC(=O)[C@@H](NC(=O)CNC(=O)[C@H](CCC(=O)O)NC(=O)C(C)(C)NC(=O)[C@@H](N)Cc1c[nH]cn1)[C@@H](C)O)[C@@H](C)O)[C@@H](C)CC)[C@@H](C)CC)C(=O)N[C@@H](CCC(=O)O)C(=O)NCC(=O)NCC(=O)N1CCC[C@H]1C(=O)N[C@@H](CO)C(=O)N[C@@H](CO)C(=O)NCC(=O)N[C@@H](C)C(=O)N1CCC[C@H]1C(=O)N1CCC[C@H]1C(=O)N1CCC[C@H]1C(=O)N[C@@H](CO)C(N)=O` [Example 53] (H-H[Aib]EGTFTSDYSI[αMeL]LDKK([AEEA-AEEA-γGlu-C20 diacid])AQ[Aib]AFIEYLIEGGPSSGAPPPS-NH2; N-terminus assumed), for which the EC50 in experiment [1] stood at 0.628 nM; in experiment [4], 0.0339 nM. Besides, the Ki turned out to be 1.23 nM in experiment [2], 216 nM in experiment [3] and 0.188 nM in experiment [5].
